Reference: article PMC6270595, “Synthesis and Cytotoxicity of Novel 10-Substituted Dihydroartemisinin Derivatives Containing N-Arylphenyl-ethenesulfonamide Groups” (Molecules, 2013)

What was measured:
[1] = tested on: HT-29 (human colon cancer); test: MTT cytotoxicity assay, HT-29; type: cell-based; conditions: Homo sapiens, HT-29 cells, 50% cell growth inhibition after 72 h of drug exposure, read-out: IC50(μM) HT29
Method: (§1) The cytotoxic activities of target compounds were evaluated against HT-29 (human colon cancer), MDA-MB-231 (human breast cancer), U87MG (human glioblastoma), H460 (human lung cancer), A549 (non-small-cell lung adenocarcinoma), HL-60 (human leukemic) cancer cell lines and one normal cell line WI-38 (human fetal lung fibroblasts) together with references DHA and cisplatin by a MTT assay.
(§2) The cytotoxic activities of compounds 3a–h and 6a–j were evaluated with the HT-29, MDA-MB-231, U87MG, H460, A549, HL-60 cancer cell lines and one normal cell line, WI-38, by the standard MTT assay in vitro [20], with DHA as the positive control. The cell lines were cultured in minimum essential medium (MEM) supplement with 10% fetal bovine serum (FBS). Approximately 4 × 10^3 cells, suspended in MEM medium, were plated on to each well of a 96-well plate and incubated in 5% CO2 at 37 °C for 24 h. The test compounds at indicated final concentrations were added to the culture medium and the cell cultures were continued for 72 h. Fresh MTT was added to each well at a terminal concentration of 5 μg/mL and incubated with cells at 37 °C for 4 h. The formazan crystals were dissolved in 100 μL DMSO each well, and the absorbency at 492 nm (for absorbance of MTT formazan) and 630 nm (for the reference wavelength) was measured with the ELISA reader. All of the compounds were tested twice in each of the cell lines. The results expressed as IC50 (inhibitory concentration 50%) were the averages of two determinations and calculated using the Bacus Laboratories Incorporated Slide Scanner (Bliss) software.

[2] = tested on: A549 (non-small-cell lung adenocarcinoma); test: MTT cytotoxicity assay, A549; type: cell-based, human; conditions: Homo sapiens, A549 cells, 50% cell growth inhibition after 72 h of drug exposure
Method: as §1, §2

H460 (human lung cancer) = test: MTT cytotoxicity assay, H460; type: cell-based; conditions: Homo sapiens, NCI-H460; H460 cells, 50% cell growth inhibition after 72 h of drug exposure, MTT
Method: as §1, §2

HL-60 (human leukemic) = test: MTT cytotoxicity assay, HL-60; type: cell-based; conditions: Homo sapiens; HL-60 cells, 50% cell growth inhibition after 72 h of drug exposure, MTT
Method: as §1, §2

[3] = tested on: U87MG (human glioblastoma); test: MTT cytotoxicity assay, U87MG; type: cell-based; conditions: Homo sapiens, U-87 MG; U87MG cells, 50% cell growth inhibition after 72 h of drug exposure, MTT
Method: as §1, §2

[4] = tested on: WI-38 (human fetal lung fibroblasts); test: MTT cytotoxicity assay, normal cell line WI-38; type: cell-based; conditions: Homo sapiens, normal WI-38 cells, 50% cell growth inhibition after 72 h of drug exposure, read-out: IC50(μM) WI38
Method: as §1, §2

[5] = tested on: MDA-MB-231 (human breast cancer); test: MTT cytotoxicity assay, MDA-MB-231; type: cell-based; conditions: Homo sapiens, MDA-MB-231 cells, 50% cell growth inhibition after 72 h of drug exposure
Method: as §1, §2

Compound	IC50 [1] [µM]	IC50 [2] [µM]	IC50 (H460 (human lung cancer)) [µM]	IC50 (HL-60 (human leukemic)) [µM]	IC50 [3] [µM]	IC50 [4] [µM]	IC50 [5] [µM]	melting point [°C]
C[C@@H]1CC[C@H]2[C@@H](C)C(OCCNC(=O)c3ccc(COc4ccc(/C=C/S(=O)(=O)Nc5cccc(Cl)c5)cc4)cc3)O[C@@H]3O[C@@]4(C)CC[C@@H]1[C@]32OO4 (stereo partly drawn) [Compound 6b, (E)-N-(2-(10β-Dihydroartemisinoxy)ethyl)-4((4-(2-(N-(3-chlorophenyl)sulfamoyl)vinyl)phenoxy)methyl)benzamide]	1.11	2.86	2.79	1.81	4.52	35.8	2.23	146 to 149
C[C@@H]1CC[C@H]2[C@@H](C)C(OCCOc3ccc(/C=C/S(=O)(=O)Nc4ccccc4Cl)cc3)O[C@@H]3O[C@@]4(C)CC[C@@H]1[C@]32OO4 (stereo partly drawn) [Compound 3g, (E)-2-(4-(2-(10β-Dihydroartemisinoxy)ethoxy)phenyl)-N-(2-chlorophenyl)ethenesulfonamide]	0.55	3.05	2.53	0.17	1.78	16.3	0.93	141 to 143
C[C@@H]1CC[C@H]2[C@@H](C)C(OCCOc3ccc(/C=C/S(=O)(=O)Nc4ccccc4)cc3)O[C@@H]3O[C@@]4(C)CC[C@@H]1[C@]32OO4 (stereo partly drawn) [Compound 3a, (E)-2-(4-(2-(10β-Dihydroartemisinoxy)ethoxy)phenyl)-N-phenylethenesulfonamide]	0.68	2.16	5.38	1.25	3.97	16.8	2	136 to 138
Cc1ccccc1NS(=O)(=O)/C=C/c1ccc(OCCOC2O[C@@H]3O[C@@]4(C)CC[C@H]5[C@H](C)CC[C@@H]([C@H]2C)[C@@]35OO4)cc1 (stereo partly drawn) [Compound 3e, (E)-2-(4-(2-(10β-Dihydroartemisinoxy)ethoxy)phenyl)-N-(2-methylphenyl)ethenesulfonamide]	0.86	7.32	1.58	2.37	2.73	16.4	1.64	136 to 138
C[C@@H]1CC[C@H]2[C@@H](C)C(OCCNC(=O)c3ccc(COc4ccc(/C=C/S(=O)(=O)Nc5ccccc5Cl)cc4)cc3)O[C@@H]3O[C@@]4(C)CC[C@@H]1[C@]32OO4 (stereo partly drawn) [Compound 6g, (E)-N-(2-(10β-Dihydroartemisinoxy)ethyl)-4((4-(2-(N-(2-chlorophenyl)sulfamoyl)vinyl)phenoxy)methyl)benzamide]	0.45	5.31	0.89	0.27	2.69	27.2	0.72	147 to 150
Cc1ccc(F)c(NS(=O)(=O)/C=C/c2ccc(OCc3ccc(C(=O)NCCOC4O[C@@H]5O[C@@]6(C)CC[C@H]7[C@H](C)CC[C@@H]([C@H]4C)[C@@]57OO6)cc3)cc2)c1 (stereo partly drawn) [Compound 6d, (E)-N-(2-(10β-Dihydroartemisinoxy)ethyl)-4((4-(2-(N-(2-fluoro-5-methylphenyl)sulfamoyl)vinyl)phenoxy)methyl)benzamide]	1.82	9.72	10.9	1.3	17.2	19.3	1.33	135 to 137
